Test results reported in patent publication US8119839B2, “Carboxylic acid and antidepressant composition containing the same as active ingredient” (Yamada Apiculture Center, Inc., priority 2007, dated 2012).

Tests used:
Assay type in all cases: in vivo, mouse
ovariectomy model mice [1] = assay: Forced swimming test (Test Example 1)
Procedure: A forced swimming test has been widely used in the preclinical assessment of the antidepressant effect, and clinically effective antidepressants are known to shorten the immobility time (Porsort et al., Nature, 266, 730-732, 1977).
Therefore, the D4-II-3E-4 fraction ((2E)-9,10-dihydroxy-2-decenoic acid) prepared in Preparation Example 1 was administered to the animal model to undergo a forced swimming test (Nature, 266:730-732, 1977), and the antidepressant effect of the compound was evaluated.
ICR female mice (9 weeks old; weight: 29 to 33 g) were used as experimental animals. All of the mice were group-housed (10 mice per cage), and the feed and white flake bedding were exchanged once per week. The surgery to remove the ovaries was performed according to the following method.
Under pentobarbital anesthesia (65 mg/kg, i.p.), a 5 mm incision was made in the dorsal abdomen of a mouse, and the ovaries was temporarily exposed to the outside of the body. After ligation between the ovaries and uterus end (i.e. oviducts), the ovaries were dissected. Thereafter, the oviducts were promptly returned to the intraperitoneal cavity, and the abdominal wall and the skin were sutured.
A 0.25 mg amount of the D4-II-3E-4 fraction (a freeze-dried product) prepared in Preparation Example 1 was dissolved in 50 ml of ion exchange water to prepare a suspension. […]
Water at a temperature of 25° C. was introduced into a clear measuring cylinder made of polycarbonate (inner diameter: 10 cm; height: 25 cm) so that the water surface level was adjusted to 10 cm from the bottom. Each mouse was forced to swim for 6 minutes while being recorded by a high-sensitivity video system. Thereafter, the recorded image was observed, and by means of an event recorder, the time (in seconds) during which the mouse was floating in an immobile state was measured (an analysis was made for the duration of the 4 minutes from the second minute onward).

ovariectomy model mice [2] = assay: Forced swimming test, modified (Test Example 2); conditions: oral for 14 days; for Immobility Time (second) Mean: 2 hours after last dose, 2nd minute to 4th minute, mean of 6 animals; for antidepressant effect: conclusion from Table 1 and FIG. 11
Procedure: Test Example 1 was partly modified as below, and a forced swimming test was performed to evaluate an antidepressant effect using the compounds (DDA-7 and DDA-14 to DDA-16) prepared in Preparation Examples 3 to 6 as test compounds. Regarding DDA-14 and DDA-15, a naturally occurring racemic form thereof has been reported, and thus, similarly to the mixture ratio by weight thereof, DDA-14 and DDA-15 were mixed at the ratio of 3:1 and prepared (2E,9S+9R)-9-hydroxy-2-decenoic acid (racemic form).
The experimental animals (ovariectomy model mice), to which each test compound was administered for 14 days (the first day of the administration was the following day after the day the ovaries were removed), were forced to swim. A 0.32 mg amount of compound DDA-7, 0.29 mg and 0.088 mg of DDA-14 and DDA-15, respectively, and 0.29 mg of DDA-16 were each individually dissolved in 80 ml of ion exchange water for administration. On the 14th day from the day each test compound administration was commenced, and 2 hours after the test compound was orally administered, each of the experimental animals was placed into a water tank, and the swimming time was measured for 10 minutes (test group). As a control experiment, the same procedure was performed as above, except that distilled water for injection was orally administered in place of the test compounds to each of the experimental animals (ovariectomy model mouse) in an amount of 0.1 ml per 10 g of body weight (control group).
The ten-minute swimming time was divided into one-minute periods to conduct analysis.

ovariectomy model mice [3] = assay: Uterus weight measurement after forced swimming test (Test Example 1); conditions: dose that shortens the immobility time, wet weight, FIG. 9
Procedure: After conducting the forced swimming test (after completing the observation of the immobility time), an overdose of pentobarbital (100 mg/kg or more) was administered to each of the mice to cause them to stop breathing, and the mice were sacrificed. Then, the uterus was collected from each of the mice through an incision in the abdomen. The collected uterus was spread onto a filter paper, and after the serosa and blood vessel adhering to the uterus were removed, the weight of the uterus was promptly measured on a wet basis with an analytical balance.

| Structure (SMILES) | Immobility Time (second) Mean (ovariectomy model mice [2]) [s] | antidepressant effect (ovariectomy model mice [2]) | further results |
| --- | --- | --- | --- |
| O=C(O)C=CCCCCCCCO [10-hydroxydecenoic acid, reference compound] | – | – | antidepressant effect (ovariectomy model mice [1]; oral 70, 140, 210 mg/kg/day, FIG. 10): does not exhibit an antidepressant effect |
| O=C(O)/C=C\CCCCC[C@@H](O)CO [DDA-7, (2Z,9R)-9,10-dihydroxy-2-decenoic acid] | 80.14 | exhibit an antidepressant effect | – |
| CC(=O)OCCCC/C=C/C(=O)O [DDA-16, (2E)-7-acetoxy-2-heptenoic acid] | 87.14 | exhibit an antidepressant effect | – |
| O=C(O)/C=C/CCCCCC(O)CO (stereo not shown) [D4-II-3E-4 fraction, (2E)-9,10-dihydroxy-2-decenoic acid] | – | – | immobility time compared with control group (ovariectomy model mice [1]; 0.25 mg in 50 ml water, 0.1 ml per 10 g body weight orally once a day for 2 weeks, 4 minutes from the second minute onward, FIG. 8): significantly shorter; antidepressant effect (ovariectomy model mice [1]; oral, once a day for 2 weeks, conclusion from FIG. 8): exhibits an antidepressant effect; uterus weight compared with control group (ovariectomy model mice [3]): a difference in the uterus weights was not recognized |
| CC(O)CCCCC/C=C/C(=O)O (racemic) [DDA14 + DDA15, (2E,9S+9R)-9-hydroxy-2-decenoic acid] | 98.82 | exhibit an antidepressant effect | – |
